Data: Sander's compilation of Henry's law constants (doi:10.1021/j100876a049)

Test: Henry solubility constant Hcp at 298.15 K (mol/(m3 Pa))
Settings: reference: McAuliffe (1966)

Row | Compound | Henry solubility constant Hcp
1 | C=C(C)C [2-methylpropene] | 4.8e-05
2 | CCCC [butane] | 1.1e-05
3 | C=C [ethene] | 4.7e-05
4 | C#CCC [1-butyne] | 0.00054
5 | C#CC [propyne] | 0.00092
6 | CC(C)(C)C [dimethylpropane] | 4.7e-06
7 | C=CC(C)C [3-methyl-1-butene] | 1.9e-05
8 | C=CC [propene] | 4.8e-05
9 | C=CCC [1-butene] | 4e-05
10 | CC(C)C [2-methylpropane] | 8.5e-06
